Reference: ChEMBL document CHEMBL1122705, “Synthesis and pharmacological evaluation of an 8 beta-bis(2-chloroethyl)amino opiate as a nonequilibrium opioid receptor probe” (J Med Chem, 1984)

Tests used:
Assay type in all cases: functional
Cavia porcellus [1] = organism: Cavia porcellus; test: Inhibitory activity in guinea pig longitudinal muscle preparation, n=2; conditions: Muscle tissue
Mus musculus [2] = organism: Mus musculus; test: Inhibitory activity in mouse vas deferens, n=4
Mus musculus [3] = organism: Mus musculus; test: Agonist activity in mouse vas deferens at a concentration of 200 nM expressed as percent maximal response
Cavia porcellus [4] = organism: Cavia porcellus; test: Agonist activity in guinea pig ileum at a concentration of 1 uM expressed as percent maximal response

| SMILES | IC50 (Cavia porcellus [1]) | IC50 (Mus musculus [2]) | Activity (Mus musculus [3]) | Activity (Cavia porcellus [4]) |
| --- | --- | --- | --- | --- |
| CN1CCC23c4c5ccc(O)c4O[C@H]2C=C[C@H](N=[N+]=[N-])[C@H]3C1C5 (some centres undefined) | 335 nM | 46 nM |  |  |
| CN1CCC23c4c5ccc(O)c4O[C@H]2C=C[C@H](N(CCCl)CCCl)[C@H]3C1C5 (some centres undefined) |  |  | 25% | 15% |
